The source of these data is patent publication US12344610B2, “APOL1 inhibitors and methods of use” (Maze Therapeutics, Inc., priority 2022, dated 2025).

Molecules are shown by their SMILES. pEC50: −log10 of the molar value.

Type in all cases: cell-based
In one assay the target is T1, APOL1 G2 (Homo sapiens, UniProt O14791, DEL388-389).
T1 construct: expressed in transfected cells; host or cells: HEK293 T-REx clonal line stably expressing GCaMP6f (HEK T-REx/GCaMP6f/APOL1 G2 K6.3), doxycycline induced
T1 sequence (O14791 with tags, fused parts or gaps DEL388-389): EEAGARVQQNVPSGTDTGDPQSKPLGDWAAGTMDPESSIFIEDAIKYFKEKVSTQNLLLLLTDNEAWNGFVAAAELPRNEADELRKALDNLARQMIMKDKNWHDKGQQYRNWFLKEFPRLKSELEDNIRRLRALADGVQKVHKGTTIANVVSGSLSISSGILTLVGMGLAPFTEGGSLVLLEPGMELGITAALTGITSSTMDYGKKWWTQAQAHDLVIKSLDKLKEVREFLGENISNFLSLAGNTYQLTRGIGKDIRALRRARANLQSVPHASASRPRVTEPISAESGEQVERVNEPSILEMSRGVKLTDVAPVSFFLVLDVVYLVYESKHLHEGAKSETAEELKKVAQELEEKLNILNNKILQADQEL
Description: APOL1-mediated calcium transport (calcium influx) assay, HEK T-REx/GCaMP6f/APOL1 G2 K6.3 cells, FLIPR TETRA. As to conditions: prevention of calcium influx; geometric mean of at least 2 assay runs; † = average of a technical replicate from a single assay run. The gist of the method: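 A HEK293 T-REx clone stably expressing GCaMP6f had APOL1 G2 induced with doxycycline (20 ng/mL solution added) for 6 h. Cells were then washed into Ca2+-free Tyrode's buffer (pH 7.4) and preincubated with compounds (duplicate 8-point) for 10 min at room temperature. Ca2+ injection to 5 mM final produced FLIPR GCaMP fluorescence, giving AC50 for influx inhibition (geometric mean, ≥2 runs).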

For assay [1], the system named is HEK293 cells overexpressing APOL1 G2. The experiment in a line: APOL1 G2 HEK293 cell rescue assay (reversal of cell death caused by overexpression of APOL1). As to conditions: Homo sapiens, HEK293, HEK293 overexpressing APOL1 G2; geometric mean of at least 2 assay runs; † = single assay run. The gist of the method:
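Each compound tested in duplicate wells on one plate per run, with values usually the geometric mean across at least two runs on different days, occasionally from one run only. Read-out: concentration giving half-maximal rescue of APOL1 G2 overexpression-induced death of HEK293 cells.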

For assay [2], the system named is HEK293 clonal cell line overexpressing APOL1 G1. The experiment in a line: APOL1 G1 HEK293 cell rescue assay (Example B3). The note with it: Homo sapiens, HEK293, HEK293 clonal line overexpressing APOL1 G1; geometric mean of at least 2 runs; † = single run; ¥ = concentration at 50% rescue estimated (no sigmoidal curve). Summed up:
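Rescue of cell death caused by APOL1 G1 overexpression was measured in a clonal HEK293 line. Compounds were tested in duplicate on one plate, and EC50s were geometric means across at least two runs on different days. Some values are estimated 50%-rescue concentrations where curve fitting failed.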

Consider `CS(=O)(=O)c1ccc(OCCN2CCC3(CC2)C(=O)Nc2ccc(Cl)cc23)c(F)c1` [Compound 48, 5-chloro-1′-[2-(2-fluoro-4-methanesulfonylphenoxy)ethyl]-1,2-dihydrospiro[indole-3,4′-piperidin]-2-one], for which the AC50 (as a rule, the midpoint of the concentration-response curve, whichever way the signal moves) at APOL1 G2 amounted to 567 nM. The pEC50 (usually the negative decadic logarithm of the EC50, by convention in mol/L) in assay [1] was 6.70; in assay [2], 6.35.
Turning to `CN(C)C(=O)c1ccc(OCCN2CCC3(CC2)C(=O)Nc2ccc(Cl)cc23)cn1` [Compound 51], on APOL1 G2, the AC50 was 953 nM. The results for the pEC50 in assay [1] and in assay [2] were 6.67 and 5.90, respectively.
For the compound `CNC(=O)c1ccc(OCCN2CCC3(CC2)C(=O)Nc2ccc(Cl)cc23)cc1` [Compound 52, 4-(2-{5-chloro-2-oxo-1,2-dihydrospiro[indole-3,4′-piperidin]-1′-yl}ethoxy)-N-methylbenzamide], the AC50 on APOL1 G2 was determined as 615 nM. The pEC50 in assay [1] was 6.67; in assay [2], 5.97.
On the same counts, the results for `CS(=O)(=O)N1Cc2ccc(OCCN3CCC4(CC3)C(=O)Nc3ccc(Cl)cc34)cc2C1` [Compound 54, 5-chloro-1′-{2-[(2-methanesulfonyl-2,3-dihydro-1H-isoindol-5-yl)oxy]ethyl}-1,2-dihydrospiro[indole-3,4′-piperidin]-2-one] are 804 nM, 7.04 and 6.41.
In the same order, the values of `CN1C(=O)C2(CCN(CCOc3ccc4c(c3)CCN(S(C)(=O)=O)C4)CC2)c2ccccc21` [Compound 55, 1′-{2-[(2-methanesulfonyl-1,2,3,4-tetrahydroisoquinolin-6-yl)oxy]ethyl}-1-methyl-1,2-dihydrospiro[indole-3,4′-piperidin]-2-one] are below 284 nM, 6.01 and 5.92.
With `CC(=O)N1CCc2cc(OCCN3CCC4(CC3)C(=O)N(C)c3ccccc34)ccc2C1` [Compound 58, 1′-{2-[(2-acetyl-1,2,3,4-tetrahydroisoquinolin-6-yl)oxy]ethyl}-1-methyl-1,2-dihydrospiro[indole-3,4′-piperidin]-2-one], the AC50 at APOL1 G2 is below 320 nM. Also, the pEC50 was 5.88 in assay [1] and 5.67 in assay [2].
Turning to `CC(=O)N1CCCc2cc(OCCN3CCC4(CC3)C(=O)Nc3ccc(C#N)cc34)ccc21` [Compound 59, 1′-{2-[(1-acetyl-1,2,3,4-tetrahydroquinolin-6-yl)oxy]ethyl}-2-oxo-1,2-dihydrospiro[indole-3,4′-piperidine]-5-carbonitrile], on APOL1 G2, the concentration at half-maximal activity (AC50) is 879 nM. For the same compound, the pEC50 is 6.67 in assay [1] and 6.37 in assay [2].
Turning to `CNC(=O)N1Cc2ccc(OCCN3CCC4(CC3)C(=O)Nc3ccc(Cl)cc34)cc2C1` [Compound 61, 5-(2-{5-chloro-2-oxo-1,2-dihydrospiro[indole-3,4′-piperidin]-1′-yl}ethoxy)-N-methyl-2,3-dihydro-1H-isoindole-2-carboxamide], the AC50 on APOL1 G2 amounted to 686 nM. Further, the pEC50 in assay [1] was 6.57; in assay [2] it was 6.20.
Consider `CN1C(=O)C2(CCN(CCOc3ccc(S(C)(=O)=O)cc3)CC2)c2ccccc21` [Compound 67, 1′-[2-(4-methanesulfonylphenoxy)ethyl]-1-methyl-1,2-dihydrospiro[indole-3,4′-piperidin]-2-one], for which the half-maximal activity concentration (AC50) at APOL1 G2 was determined as 351 nM. Besides, the pEC50 is 6.10 in assay [1] and 5.54 in assay [2].
For `CS(=O)(=O)c1ccc(OCCN2CCC3(CC2)C(=O)Nc2ccccc23)cc1` [Compound 73, 1′-[2-(4-methanesulfonylphenoxy)ethyl]-1,2-dihydrospiro[indole-3,4′-piperidin]-2-one], the half-maximal activity concentration (AC50) at APOL1 G2 was 161 nM. Also, the pEC50 in assay [1] was 6.28; in assay [2], 5.45.
As for `CS(=O)(=O)c1ccc(OCCN2CCC3(CC2)C(=O)Nc2ccc(C#N)cc23)cc1F` [Compound 74, 1′-[2-(3-fluoro-4-methanesulfonylphenoxy)ethyl]-2-oxo-1,2-dihydrospiro[indole-3,4′-piperidine]-5-carbonitrile], on APOL1 G2, the AC50 came out at 781 nM. In addition, the pEC50 in assay [1] was 6.78; in assay [2], 6.33.
For `CC(=O)N1CCCc2cc(OCCN3CCC4(CC3)C(=O)Nc3ccc(Cl)cc34)cnc21` [Compound 80, 1′-{2-[(8-acetyl-5,6,7,8-tetrahydro-1,8-naphthyridin-3-yl)oxy]ethyl}-5-chloro-1,2-dihydrospiro[indole-3,4′-piperidin]-2-one], the AC50 on APOL1 G2 worked out at 375 nM. Further, the pEC50 in assay [1] is 7.18; in assay [2], 6.75.
On the same counts, the results for `CC(=O)N1CCCc2cc(OCCN3CCC4(CC3)C(=O)Nc3ccc(C#N)cc34)cnc21` [Compound 81, 1′-{2-[(8-acetyl-5,6,7,8-tetrahydro-1,8-naphthyridin-3-yl)oxy]ethyl}-2-oxo-1,2-dihydrospiro[indole-3,4′-piperidine]-5-carbonitrile] are 549 nM, 6.55 and 6.02.
For `CN1C(=O)C(C)(C)c2cc(OCCN3CCC4(CC3)C(=O)Nc3ccc(C#N)cc34)ccc21` [Compound 83, 2-oxo-1′-{2-[(1,3,3-trimethyl-2-oxo-2,3-dihydro-1H-indol-5-yl)oxy]ethyl}-1,2-dihydrospiro[indole-3,4′-piperidine]-5-carbonitrile], the AC50 on APOL1 G2 turned out to be 718 nM. The negative-log EC50 (pEC50) in assay [1] is 6.61; in assay [2], 6.10.
In the same order, the values of `O=C1NCC2c3ccc(OCCN4CCC5(CC4)C(=O)Nc4ccc(Cl)cc45)cc3CCN12` (stereo not drawn) [Compound 115, 5-chloro-1′-[2-({3-oxo-1H,2H,3H,5H,6H,10bH-imidazo[4,3-a]isoquinolin-8-yl}oxy)ethyl]-1,2-dihydrospiro[indole-3,4′-piperidin]-2-one] are 472 nM, 7.02 and 6.70.
Turning to `N#Cc1ccc2c(c1)C1(CCN(CCOc3ccc4c(c3)CCN3C(=O)NCC43)CC1)C(=O)N2` (stereo not drawn) [Compound 118, 2-oxo-1′-[2-({3-oxo-1H,2H,3H,5H,6H,10bH-imidazo[4,3-a]isoquinolin-8-yl}oxy)ethyl]-1,2-dihydrospiro[indole-3,4′-piperidine]-5-carbonitrile], at APOL1 G2, the AC50 is 1040 nM. The pEC50 in assay [1] was 6.37; in assay [2] it was around 5.68.
For `O=C1CCC2c3ccc(OCCN4CCC5(CC4)C(=O)Nc4ccc(Cl)cc45)cc3CCN12` (stereo not drawn) [Compound 121, 5-chloro-1′-[2-({3-oxo-1H,2H,3H,5H,6H,10bH-pyrrolo[2,1-a]isoquinolin-8-yl}oxy)ethyl]-1,2-dihydrospiro[indole-3,4′-piperidin]-2-one], the concentration at half-maximal activity (AC50) at APOL1 G2 came to 508 nM. In addition, the pEC50 in assay [1] is 7.09; in assay [2], 6.60.
For the compound `N#Cc1ccc2c(c1)C1(CCN(CCOc3ccc4c(c3)CCN3C(=O)CCC43)CC1)C(=O)N2` (stereo not drawn) [Compound 124, 2-oxo-1′-[2-({3-oxo-1H,2H,3H,5H,6H,10bH-pyrrolo[2,1-a]isoquinolin-8-yl}oxy)ethyl]-1,2-dihydrospiro[indole-3,4′-piperidine]-5-carbonitrile], the concentration at half-maximal activity (AC50) on APOL1 G2 is 727 nM. For the same compound, the negative logarithm of the EC50 (pEC50) in assay [1] was 6.53; in assay [2], 6.04.
Take `Cc1cc(OCCN2CCC3(CC2)C(=O)Nc2ccc(C#N)cc23)cc(C)c1S(C)(=O)=O` [Compound 130, 1′-[2-(4-methanesulfonyl-3,5-dimethylphenoxy)ethyl]-2-oxo-1,2-dihydrospiro[indole-3,4′-piperidine]-5-carbonitrile]: the half-maximal activity concentration (AC50) on APOL1 G2 worked out at 525 nM. Besides, the figures for the pEC50 in assay [1] and in assay [2] were 7.03 and 6.60, respectively.
Regarding `CC(c1ccc(OCCN2CCC3(CC2)C(=O)Nc2ccc(C#N)cc23)cc1)S(C)(=O)=O` (stereo not drawn) [Compound 133, 1′-{2-[4-(1-methanesulfonylethyl)phenoxy]ethyl}-2-oxo-1,2-dihydrospiro[indole-3,4′-piperidine]-5-carbonitrile], the AC50 on APOL1 G2 was 671 nM. The figures for the negative logarithm of the EC50 (pEC50) in assay [1] and in assay [2] were 6.69 and 6.05, respectively.
In the same order, the values of `CC(c1c(F)cc(OCCN2CCC3(CC2)C(=O)Nc2ccc(Cl)cc23)cc1F)S(C)(=O)=O` (stereo not drawn) [Compound 141, 5-chloro-1′-{2-[3,5-difluoro-4-(1-methanesulfonylethyl)phenoxy]ethyl}-1,2-dihydrospiro[indole-3,4′-piperidin]-2-one] are 954 nM, 7.32 and 6.69.
